Measured values as given in ChEMBL document CHEMBL6178010, “XPO1-Targeting Selective Inhibitors of Transcriptional Activation Suppress Graft-versus-Host Disease” (J Med Chem, 2025).
Activity calls are given as the source filed them. The calls are words filed in the database; no cut-off is given here.

How the values were obtained:
Exportin-1 [1] = target: T1, Exportin-1 (Homo sapiens, UniProt O14980); assay: Inhibition of XPO1 in PMA/ionomycin-activated human Jurkat cells expressing IL-2 promoter reporter gene assessed as suppression of IL-2 transcriptional activity incubated for 6 hrs by Bright-Glo Luciferase assay; assay type: cell-based
Jurkat [2] = assay: Cytotoxicity against human Jurkat cells assessed as suppression of cell viability incubated for 24 hrs by CellTiter-Glo assay; assay type: functional, cell-based
XPO1 = assay: Selectivity ratio of EC50 for cytotoxicity against human Jurkat cells assessed as suppression of cell viability to EC50 for inhibition of XPO1 in PMA/ionomycin-activated human Jurkat cells expressing IL-2 promoter reporter gene assessed as suppression of IL-2 transcriptional activity; assay type: toxicity, cell-based; conditions: read-out: Ratio EC50
Jurkat [3] = assay: Downregulation of IL-2 mRNA level in PMA/ionomycin-activated human Jurkat cells expressing XPO1 C528S mutant at 100 nM incubated for 6 hrs by RT-qPCR analysis; assay type: functional, cell-based
[4] = Metabolic stability in mouse liver microsome assessed as half life; assay type: ADME; conditions: liver microsomes
[5] = Metabolic stability in mouse liver microsome assessed as intrinsic clearance; assay type: ADME; conditions: liver microsomes, read-out: CLH
Exportin-1 [6] = target: T1, Exportin-1; assay: Inhibition of selinexor-alkyne binding to XPO1 at Cys528 in human Jurkat cells up to 300 nM pretreated for 1 hr followed by addition of selinexor-alkyne measured after 1 hr by In-gel fluorescence analysis; assay type: cell-based; conditions: time 2.0 hrs
Jurkat [7] = assay: Cytotoxicity against human Jurkat cells expressing XPO1 C528S mutant assessed as suppression of cell viability up to 1000 nM incubated for 24 hrs by CellTiter-Glo assay; assay type: functional, cell-based
[8] = Drug exposure in mouse administered intraperitoneally; assay type: ADME; conditions: in vivo, ip
Mus musculus [9] = assay: Suppression of T-cell activation in irradiated BALB/c mouse transplanted with bone marrow/splenic T-cells from C57BL/6 mouse assessed as downregulation of IFNG in host spleen at 10 mg/kg, ip administered daily for 7 days by RT-qPCR analysis; assay type: functional, organism-based; conditions: time 7.0 day
Mus musculus [10] = assay: Suppression of T-cell activation in irradiated BALB/c mouse transplanted with bone marrow/splenic T-cells from C57BL/6 mouse assessed as downregulation of CSF2 in host spleen at 10 mg/kg, ip administered daily for 7 days by RT-qPCR analysis; assay type: functional, organism-based; conditions: time 7.0 day
Mus musculus [11] = assay: Anti-inflammatory activity in irradiated BALB/c mouse transplanted with bone marrow/splenic T-cells from C57BL/6 mouse assessed as suppression of CD3 positive T-cell infiltration in host liver at 10 mg/kg, ip qd administered daily for 7 days by IHC analysis; assay type: functional, organism-based; conditions: time 7.0 day
Mus musculus [12] = assay: Anti-inflammatory activity in irradiated BALB/c mouse transplanted with bone marrow/splenic T-cells from C57BL/6 mouse assessed as suppression of IFNG mRNA level in host spleen administered as ip dose for 7 days by RT-qPCR analysis; assay type: functional, organism-based; conditions: dose 10-100 mg/kg, time 7.0 day
Mus musculus [13] = assay: Anti-inflammatory activity in irradiated BALB/c mouse transplanted with bone marrow/splenic T-cells from C57BL/6 mouse assessed as suppression of CSF2 mRNA level in host spleen administered as ip dose for 7 days by RT-qPCR analysis; assay type: functional, organism-based; conditions: dose 10-100 mg/kg, time 7.0 day
Mus musculus [14] = assay: Anti-inflammatory activity in irradiated BALB/c mouse transplanted with bone marrow/splenic T-cells from C57BL/6 mouse assessed as increase in CD3 positive CD4 positive T cells in host spleen at 1 to 10 mg/kg, ip administered for 7 days by flow cytometry analysis; assay type: functional, organism-based; conditions: dose 1-10 mg/kg, time 7.0 day
Mus musculus [15] = assay: Anti-inflammatory activity in irradiated BALB/c mouse transplanted with bone marrow/splenic T-cells from C57BL/6 mouse assessed as decrease in CD3 positive CD8 positive T cells in host spleen at 1 to 10 mg/kg, ip administered for 7 days by flow cytometry analysis; assay type: functional, organism-based; conditions: dose 1-10 mg/kg, time 7.0 day
Mus musculus [16] = assay: Anti-inflammatory activity in irradiated BALB/c mouse transplanted with bone marrow/splenic T-cells from C57BL/6 mouse assessed as improvement in animal survival at 3 mg/kg, ip administered daily for 21 days; assay type: functional, organism-based; conditions: time 21.0 day
[17] = Toxicity in mouse assessed as neutropenia at 10 mg/kg, ip administered daily for 5 days by CBC analysis; assay type: organism-based; conditions: in vivo, 120 h, time 5 day
[18] = Toxicity in mouse assessed as leukopenia at 10 mg/kg, ip administered daily for 5 days by CBC analysis; assay type: organism-based; conditions: in vivo, 120 h, time 5 day
Jurkat [19] = assay: Downregulation of IL-2 mRNA level in PMA/ionomycin-activated human Jurkat cells expressing XPO1 C528S mutant at 200 nM incubated for 6 hrs by RT-qPCR analysis; assay type: functional, cell-based
Mus musculus [20] = assay: Anti-inflammatory activity in irradiated BALB/c mouse transplanted with bone marrow/splenic T-cells from C57BL/6 mouse assessed as suppression of CCL3 mRNA level in host spleen administered as ip dose for 7 days by RT-qPCR analysis; assay type: functional, organism-based; conditions: dose 10-100 mg/kg, time 7.0 day
Mus musculus [21] = assay: Anti-inflammatory activity in irradiated BALB/c mouse transplanted with bone marrow/splenic T-cells from C57BL/6 mouse assessed as suppression of TNF mRNA level in host spleen administered as ip dose for 7 days by RT-qPCR analysis; assay type: functional, organism-based; conditions: dose 10-100 mg/kg, time 7.0 day
Mus musculus [22] = assay: Anti-inflammatory activity in irradiated BALB/c mouse transplanted with bone marrow/splenic T-cells from C57BL/6 mouse assessed as healthy appearance of animal at 1 to 10 mg/kg, ip administered for 7 days; assay type: functional, organism-based; conditions: dose 1-10 mg/kg, time 7.0 day
Mus musculus [23] = assay: Anti-inflammatory activity in irradiated BALB/c mouse transplanted with bone marrow/splenic T-cells from C57BL/6 mouse assessed as active behaviour of animal at 1 to 10 mg/kg, ip administered for 7 days; assay type: functional, organism-based; conditions: dose 1-10 mg/kg, time 7.0 day
[24] = Toxicity in irradiated BALB/c mouse transplanted with bone marrow/splenic T-cells from C57BL/6 mouse assessed as drug tolerance at 3 mg/kg, ip administered daily for 21 days; assay type: organism-based; conditions: in vivo, 504 h, time 21 day
Mus musculus [25] = assay: Anti-inflammatory activity in irradiated BALB/c mouse transplanted with bone marrow/splenic T-cells from C57BL/6 mouse assessed as reduction in animal lethality at 10 mg/kg, ip administered daily measured for 8 days; assay type: functional, organism-based; conditions: time 8.0 day
Jurkat [26] = assay: Cytotoxicity against human Jurkat cells expressing XPO1 C528S mutant assessed as suppression of cell viability up to 10000 nM incubated for 24 hrs by CellTiter-Glo assay; assay type: functional, cell-based
Exportin-1 [27] = target: T1, Exportin-1; assay: Inhibition of selinexor-alkyne binding to XPO1 at Cys528 in human Jurkat cells up to 10 nM pretreated for 1 hr followed by addition of selinexor-alkyne measured after 1 hr by In-gel fluorescence analysis; assay type: cell-based; conditions: time 2.0 hrs
Exportin-1 [28] = target: T1, Exportin-1; assay: Covalent binding affinity to XPO1 in human Jurkat cells at 4 to 1000 nM by In-gel fluorescence analysis; assay type: cell-based; conditions: dose 4-1000 nM
[29] = target: Exportin-1 (Mus musculus) (UniProt Q6P5F9); assay: In vivo binding affinity to XPO1 in mouse spleen at 1 to 9 mg/kg, ip qd administered for 5 days by Western blot analysis; assay type: functional, organism-based; conditions: dose 1-9 mg/kg, time 5.0 day
[30] = target: Exportin-1 (Mus musculus) (UniProt Q6P5F9); assay: In vivo binding affinity to XPO1 in mouse liver at 1 to 9 mg/kg, ip qd administered for 5 days by Western blot analysis; assay type: functional, organism-based; conditions: dose 1-9 mg/kg, time 5.0 day
[31] = target: Exportin-1 (Mus musculus) (UniProt Q6P5F9); assay: In vivo binding affinity to XPO1 in mouse kidney at 1 to 9 mg/kg, ip qd administered for 5 days by Western blot analysis; assay type: functional, organism-based; conditions: dose 1-9 mg/kg, time 5.0 day
Exportin-1 [32] = target: T1, Exportin-1; assay: Covalent binding affinity to XPO1 in human Jurkat cells at 0.6 to 123 nM by In-gel fluorescence analysis; assay type: cell-based; conditions: dose 0.6-123 nM
[33] = target: Exportin-1 (Mus musculus) (UniProt Q6P5F9); assay: In vivo binding affinity to XPO1 in mouse spleen at 10 mg/kg, ip qd administered for 5 days by Western blot analysis; assay type: functional, organism-based; conditions: time 5.0 day
[34] = target: Exportin-1 (Mus musculus) (UniProt Q6P5F9); assay: In vivo binding affinity to XPO1 in mouse liver at 10 mg/kg, ip qd administered for 5 days by Western blot analysis; assay type: functional, organism-based; conditions: time 5.0 day
[35] = target: Exportin-1 (Mus musculus) (UniProt Q6P5F9); assay: In vivo binding affinity to XPO1 in mouse kidney at 10 mg/kg, ip qd administered for 5 days by Western blot analysis; assay type: functional, organism-based; conditions: time 5.0 day
Jurkat [36] = assay: Downregulation of IL-2 mRNA level in PMA/ionomycin-activated human Jurkat cells expressing XPO1 C528S mutant at 10 nM incubated for 6 hrs by RT-qPCR analysis; assay type: functional, cell-based
Jurkat [37] = assay: Cytotoxicity against human Jurkat cells expressing XPO1 C528S mutant assessed as suppression of cell viability up to 100 nM incubated for 24 hrs by CellTiter-Glo assay; assay type: functional, cell-based

Chain of Exportin-1 (Mus musculus) (Q6P5F9 whole entry): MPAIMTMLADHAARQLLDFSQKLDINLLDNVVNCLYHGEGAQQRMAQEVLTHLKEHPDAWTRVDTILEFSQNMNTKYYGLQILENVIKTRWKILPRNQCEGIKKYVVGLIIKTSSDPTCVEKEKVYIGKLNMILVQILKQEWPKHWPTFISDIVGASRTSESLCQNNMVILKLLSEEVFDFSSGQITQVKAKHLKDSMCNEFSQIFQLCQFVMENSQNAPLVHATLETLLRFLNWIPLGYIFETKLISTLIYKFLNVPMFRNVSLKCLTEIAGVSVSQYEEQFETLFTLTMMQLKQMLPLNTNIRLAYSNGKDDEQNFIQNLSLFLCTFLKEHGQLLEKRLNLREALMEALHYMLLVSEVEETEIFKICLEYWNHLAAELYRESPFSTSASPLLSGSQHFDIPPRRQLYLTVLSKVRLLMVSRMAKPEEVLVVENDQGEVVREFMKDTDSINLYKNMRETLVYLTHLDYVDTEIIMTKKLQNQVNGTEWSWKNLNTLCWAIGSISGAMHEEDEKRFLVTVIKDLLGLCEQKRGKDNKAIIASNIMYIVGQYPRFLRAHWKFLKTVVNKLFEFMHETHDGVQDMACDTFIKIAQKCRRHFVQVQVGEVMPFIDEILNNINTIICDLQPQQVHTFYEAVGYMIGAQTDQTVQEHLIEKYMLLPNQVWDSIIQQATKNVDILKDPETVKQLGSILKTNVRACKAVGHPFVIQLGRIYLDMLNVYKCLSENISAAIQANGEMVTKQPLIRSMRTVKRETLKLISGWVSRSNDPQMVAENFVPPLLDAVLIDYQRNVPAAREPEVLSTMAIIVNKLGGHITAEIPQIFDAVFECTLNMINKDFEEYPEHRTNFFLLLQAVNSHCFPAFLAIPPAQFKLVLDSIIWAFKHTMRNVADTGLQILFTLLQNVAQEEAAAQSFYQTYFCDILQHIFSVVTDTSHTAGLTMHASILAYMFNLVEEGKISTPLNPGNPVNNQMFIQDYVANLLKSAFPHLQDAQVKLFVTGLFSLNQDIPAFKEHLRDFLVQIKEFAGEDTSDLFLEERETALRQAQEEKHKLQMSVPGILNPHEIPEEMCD
T1 sequence (O14980 whole entry): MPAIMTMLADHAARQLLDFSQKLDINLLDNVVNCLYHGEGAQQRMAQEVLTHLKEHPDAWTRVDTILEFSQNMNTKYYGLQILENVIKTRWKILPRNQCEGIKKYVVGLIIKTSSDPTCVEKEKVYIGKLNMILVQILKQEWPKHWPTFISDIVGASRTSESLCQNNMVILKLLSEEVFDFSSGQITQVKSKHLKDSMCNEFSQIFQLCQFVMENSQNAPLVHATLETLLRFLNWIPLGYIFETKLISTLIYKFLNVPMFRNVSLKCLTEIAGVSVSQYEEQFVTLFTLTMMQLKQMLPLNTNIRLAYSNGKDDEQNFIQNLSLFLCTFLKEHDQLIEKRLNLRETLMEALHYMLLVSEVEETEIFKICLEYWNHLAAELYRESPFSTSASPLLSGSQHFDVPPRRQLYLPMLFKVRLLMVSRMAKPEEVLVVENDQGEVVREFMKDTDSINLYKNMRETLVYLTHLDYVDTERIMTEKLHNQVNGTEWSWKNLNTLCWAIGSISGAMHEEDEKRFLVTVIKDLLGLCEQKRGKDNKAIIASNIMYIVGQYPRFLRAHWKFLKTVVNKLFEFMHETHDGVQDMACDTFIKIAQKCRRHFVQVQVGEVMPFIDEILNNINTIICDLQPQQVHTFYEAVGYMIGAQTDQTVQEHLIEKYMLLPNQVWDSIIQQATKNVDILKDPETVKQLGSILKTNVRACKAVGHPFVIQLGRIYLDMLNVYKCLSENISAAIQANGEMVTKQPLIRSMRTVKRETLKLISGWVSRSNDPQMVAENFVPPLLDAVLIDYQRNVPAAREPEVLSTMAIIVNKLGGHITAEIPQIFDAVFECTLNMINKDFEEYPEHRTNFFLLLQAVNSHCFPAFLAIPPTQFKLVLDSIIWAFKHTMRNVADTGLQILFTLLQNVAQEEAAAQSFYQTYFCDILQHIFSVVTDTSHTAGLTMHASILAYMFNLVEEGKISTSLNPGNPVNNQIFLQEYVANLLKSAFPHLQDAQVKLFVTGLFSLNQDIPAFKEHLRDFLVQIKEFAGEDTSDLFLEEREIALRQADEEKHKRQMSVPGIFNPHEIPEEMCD

CC1=CC(=O)N(Nc2nc(N3CCCC3)nn3cccc23)C1=O
EC50 (Exportin-1 [1]): 34 nM | EC50 (Jurkat [2]): 240 nM | selectivity ratio (XPO1): 7.1 | Activity (Jurkat [3]): inactive | half-life [4]: > 60 min | microsomal CLint [5]: < 23 µL/min/mg | inhibition (Exportin-1 [6]): Active | Activity (Jurkat [7]): inactive | Drug uptake [8]: Active

CC1=CC(=O)N(Nc2nc(C(F)(F)F)nn3cccc23)C1=O
EC50 (Exportin-1 [1]): 31 nM | EC50 (Jurkat [2]): 270 nM | selectivity ratio (XPO1): 8.7 | half-life [4]: > 60 min | microsomal CLint [5]: < 23 µL/min/mg | Activity (Mus musculus [9]): Active; Compound Showed Stronger Effect Than Sp100030 | Activity (Mus musculus [10]): Active; Compound Showed Stronger Effect Than Sp100030 | Activity (Mus musculus [11]): Active | Activity (Mus musculus [12]): Dose-dependent-effect | Activity (Mus musculus [13]): Dose-dependent-effect | Activity (Mus musculus [14]): Active | Activity (Mus musculus [15]): Active | Activity (Mus musculus [16]): Active | Activity [17]: Non-toxic | Activity [18]: Non-toxic | inhibition (Exportin-1 [6]): Active | Activity (Jurkat [19]): inactive | Activity (Jurkat [7]): inactive | Drug uptake [8]: Active | Activity (Mus musculus [20]): Dose-dependent-effect | Activity (Mus musculus [21]): Dose-dependent-effect | Activity (Mus musculus [22]): Active | Activity (Mus musculus [23]): Active | Activity [24]: Non-toxic

O=C(/C=C\n1cnc(-c2cc(C(F)(F)F)cc(C(F)(F)F)c2)n1)NNc1cnccn1 [SELINEXOR]
Activity [17]: Toxic | Activity [18]: Toxic | Activity (Mus musculus [25]): inactive

CC1=CC(=O)N(Nc2ccc(C(F)(F)F)c(N(C)C)n2)C1=O
EC50 (Exportin-1 [1]): 8.3 nM | EC50 (Jurkat [2]): 696 nM | selectivity ratio (XPO1): 83.9 | Activity (Jurkat [3]): inactive | Activity (Jurkat [26]): Active | inhibition (Exportin-1 [27]): Active

C#Cc1cc2c(NN3C(=O)C=C(C)C3=O)nc(C(F)(F)F)nn2c1
Activity (Exportin-1 [28]): Active | Activity [29]: Active | Activity [30]: Active | Activity [31]: Active

C#Cc1cc(NN2C(=O)C=C(C)C2=O)cc(C(F)(F)F)c1
Activity (Exportin-1 [32]): Active | Activity [33]: Active | Activity [34]: Active | Activity [35]: Active

CC1=CC(=O)N(Nc2cc(C(F)(F)F)cc(C(F)(F)F)c2)C1=O
half-life [4]: > 60 min | microsomal CLint [5]: < 23 µL/min/mg | Activity (Mus musculus [9]): Active; Compound Showed Stronger Effect Than Sp100030 | Activity (Mus musculus [10]): Active; Compound Showed Stronger Effect Than Sp100030 | Activity (Mus musculus [11]): Active | Activity [17]: Non-toxic | Activity [18]: Non-toxic | Drug uptake [8]: Active

CC1=CC(=O)N(Nc2nc(N(C)CC3CC3)nn3cccc23)C1=O
EC50 (Exportin-1 [1]): 60.4 nM | EC50 (Jurkat [2]): 329 nM | selectivity ratio (XPO1): 5.4 | half-life [4]: 2.6 min | microsomal CLint [5]: 528 µL/min/mg

CC1=CC(=O)N(Nc2ccc(C(F)(F)F)c(N3CC4CC4C3)n2)C1=O (stereo unspecified)
EC50 (Exportin-1 [1]): 1 nM | EC50 (Jurkat [2]): 30.4 nM | selectivity ratio (XPO1): 30.4 | Activity (Jurkat [36]): inactive | Activity (Jurkat [37]): Active | half-life [4]: < 10 min | microsomal CLint [5]: > 139 µL/min/mg | inhibition (Exportin-1 [27]): Active
